Test results as given in ChEMBL document CHEMBL1201862, “PubChem BioAssay data set” (2004).
Calls of active or inactive are those of the source.

Columns and labels:
[1] = molecular target: T1, Corticotropin-releasing factor receptor 2/Corticotropin-releasing factor-binding protein (Homo sapiens, UniProt P24387+Q13324); test: activators of CRF receptor 2 with binding protein – uHTS hits, confirmation (AID 602473); assay type: functional; details: read-out: EC50_Mean
T1 sequence (Q13324 whole entry): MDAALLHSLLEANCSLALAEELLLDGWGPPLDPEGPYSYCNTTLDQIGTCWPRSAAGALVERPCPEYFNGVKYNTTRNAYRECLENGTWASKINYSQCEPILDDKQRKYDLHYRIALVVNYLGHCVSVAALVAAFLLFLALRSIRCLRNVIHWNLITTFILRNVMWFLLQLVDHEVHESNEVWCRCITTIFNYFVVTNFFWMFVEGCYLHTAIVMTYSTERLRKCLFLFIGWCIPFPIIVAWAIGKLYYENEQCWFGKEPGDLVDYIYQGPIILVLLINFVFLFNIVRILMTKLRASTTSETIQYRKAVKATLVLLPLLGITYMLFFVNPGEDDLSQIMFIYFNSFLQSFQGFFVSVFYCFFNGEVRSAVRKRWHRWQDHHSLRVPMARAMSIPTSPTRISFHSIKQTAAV
T1 sequence (P24387 whole entry): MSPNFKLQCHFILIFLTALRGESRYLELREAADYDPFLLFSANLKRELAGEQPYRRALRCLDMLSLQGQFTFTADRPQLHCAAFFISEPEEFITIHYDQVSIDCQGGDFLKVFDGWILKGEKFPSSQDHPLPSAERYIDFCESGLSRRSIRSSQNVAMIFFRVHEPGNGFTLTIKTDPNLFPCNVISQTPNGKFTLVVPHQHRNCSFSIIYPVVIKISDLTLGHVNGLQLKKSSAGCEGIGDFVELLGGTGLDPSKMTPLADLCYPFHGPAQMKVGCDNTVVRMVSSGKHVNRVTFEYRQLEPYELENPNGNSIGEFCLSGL

[2] = molecular target: T1, Corticotropin-releasing factor receptor 2/Corticotropin-releasing factor-binding protein; test: Dose Response confirmation of uHTS hits for small molecule antagonists of the CRF-binding protein and CRF-R2 receptor complex.; assay type: functional; details: read-out: IC50_Mean
[3] = inhibition of ADAM10 peptide cleavage – biochemical, FRET peptide substrate, recombinant human ADAM10, selectivity assay for ADAM17 exosite inhibitor project, dose response (AID 743259);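 further: ADAM10 enzyme cleaving a FRET peptide substrate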
[4] = molecular target: Disintegrin and metalloproteinase domain-containing protein 17 (Homo sapiens, UniProt P78536); test: exosite inhibitors of ADAM17, dose response, biochemical (AID 743260)
Sequence of Disintegrin and metalloproteinase domain-containing protein 17 (P78536 whole entry, the tested form may be a part): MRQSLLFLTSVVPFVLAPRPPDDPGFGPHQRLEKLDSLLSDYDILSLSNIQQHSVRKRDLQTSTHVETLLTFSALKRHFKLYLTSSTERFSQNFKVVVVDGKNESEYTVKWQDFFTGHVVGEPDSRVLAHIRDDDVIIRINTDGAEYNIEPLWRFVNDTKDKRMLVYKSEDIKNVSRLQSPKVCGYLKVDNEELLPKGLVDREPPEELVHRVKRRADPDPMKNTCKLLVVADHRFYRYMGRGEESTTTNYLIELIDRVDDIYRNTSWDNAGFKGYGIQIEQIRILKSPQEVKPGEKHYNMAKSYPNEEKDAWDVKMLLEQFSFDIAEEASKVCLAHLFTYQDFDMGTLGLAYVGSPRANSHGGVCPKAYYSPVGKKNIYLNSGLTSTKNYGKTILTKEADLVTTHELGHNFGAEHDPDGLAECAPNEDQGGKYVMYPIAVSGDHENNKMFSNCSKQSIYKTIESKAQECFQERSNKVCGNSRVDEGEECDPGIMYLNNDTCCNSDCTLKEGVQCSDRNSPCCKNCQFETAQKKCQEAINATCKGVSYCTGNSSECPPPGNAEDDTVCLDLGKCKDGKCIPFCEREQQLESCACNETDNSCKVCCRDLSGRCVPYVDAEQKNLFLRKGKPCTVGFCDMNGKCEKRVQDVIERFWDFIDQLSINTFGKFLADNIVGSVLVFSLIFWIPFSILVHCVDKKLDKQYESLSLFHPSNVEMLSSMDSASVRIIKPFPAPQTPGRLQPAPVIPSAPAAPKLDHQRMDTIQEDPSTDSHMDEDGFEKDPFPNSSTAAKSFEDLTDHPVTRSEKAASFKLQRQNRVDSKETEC

[5] = P. falciparum Dd2 growth inhibitors, dose response, SYBR Green, cherry-picked samples (AID 1159567); assay type: functional, cell-based
[6] = growth inhibition of yeast DHODH-expressing 3D7 parasites – SYBR Green, dry powder samples, dose response (AID 1159570); assay type: functional, cell-based;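 further: parasite growth measured after 72 hours of compound exposure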
[7] = toxicity to human HepG2 hepatoma cells – cell-based, plate reader, dry powder samples, cytotoxicity control, dose response (AID 1159569); assay type: functional;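 further: inhibitor potency with signal falling toward the positive control level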
[8] = Dd2 malaria parasite growth inhibition potency – SYBR Green, dry powder samples, dose response (AID 1159566); assay type: functional, cell-based;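 further: potency for growth inhibition with lower SYBR green DNA signal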
[9] = growth inhibition of PfATP4-mutant resistant parasites – NITD609-resistant line, SYBR Green, dry powder, dose response (AID 1159571); assay type: functional, cell-based;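 further: parasites synchronized at ring stage by sorbitol before testing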
fMet-Leu-Phe receptor = fMet-Leu-Phe receptor (Homo sapiens, UniProt P21462); test: formyl peptide receptor binders – dose response (AID 519); assay type: functional
Sequence of fMet-Leu-Phe receptor (P21462 whole entry): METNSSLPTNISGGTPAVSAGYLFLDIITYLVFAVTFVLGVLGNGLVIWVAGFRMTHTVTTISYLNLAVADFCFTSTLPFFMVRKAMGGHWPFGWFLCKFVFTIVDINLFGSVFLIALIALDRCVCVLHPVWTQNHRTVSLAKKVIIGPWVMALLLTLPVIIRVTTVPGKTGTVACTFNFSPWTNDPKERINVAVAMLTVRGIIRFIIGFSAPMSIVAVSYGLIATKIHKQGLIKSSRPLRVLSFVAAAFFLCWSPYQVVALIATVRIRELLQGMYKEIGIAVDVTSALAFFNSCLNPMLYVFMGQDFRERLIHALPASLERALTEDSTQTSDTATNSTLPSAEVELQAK

[10] = molecular target: G-protein coupled receptor 55 (Homo sapiens, UniProt Q9Y2T6); test: inhibition of LPI-stimulated GPR55 beta-arrestin translocation – imaging, U2OS, beta-arrestin-GFP, LPI agonist, primary screen (AID 2013); assay type: functional;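 further: antagonist potency measured as reduced agonist-driven arrestin aggregation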
Sequence of G-protein coupled receptor 55 (Q9Y2T6 whole entry): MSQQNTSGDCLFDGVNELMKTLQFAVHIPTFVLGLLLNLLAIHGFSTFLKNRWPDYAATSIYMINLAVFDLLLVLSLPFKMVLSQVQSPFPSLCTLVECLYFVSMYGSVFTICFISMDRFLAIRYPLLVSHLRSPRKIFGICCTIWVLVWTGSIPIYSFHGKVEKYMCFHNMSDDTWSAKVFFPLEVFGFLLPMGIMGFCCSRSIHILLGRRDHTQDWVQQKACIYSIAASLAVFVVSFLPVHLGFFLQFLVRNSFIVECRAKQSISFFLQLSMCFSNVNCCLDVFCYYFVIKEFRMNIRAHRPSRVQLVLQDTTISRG

[11] = molecular target: T2, Replicative DNA helicase DnaB (Mycobacterium tuberculosis, UniProt P9WMR3); test: DnaB intein splicing inhibitors, dose response, biochemical, cell-free fluorescence (AID 449749); assay type: functional
T2 sequence (P9WMR3 whole entry): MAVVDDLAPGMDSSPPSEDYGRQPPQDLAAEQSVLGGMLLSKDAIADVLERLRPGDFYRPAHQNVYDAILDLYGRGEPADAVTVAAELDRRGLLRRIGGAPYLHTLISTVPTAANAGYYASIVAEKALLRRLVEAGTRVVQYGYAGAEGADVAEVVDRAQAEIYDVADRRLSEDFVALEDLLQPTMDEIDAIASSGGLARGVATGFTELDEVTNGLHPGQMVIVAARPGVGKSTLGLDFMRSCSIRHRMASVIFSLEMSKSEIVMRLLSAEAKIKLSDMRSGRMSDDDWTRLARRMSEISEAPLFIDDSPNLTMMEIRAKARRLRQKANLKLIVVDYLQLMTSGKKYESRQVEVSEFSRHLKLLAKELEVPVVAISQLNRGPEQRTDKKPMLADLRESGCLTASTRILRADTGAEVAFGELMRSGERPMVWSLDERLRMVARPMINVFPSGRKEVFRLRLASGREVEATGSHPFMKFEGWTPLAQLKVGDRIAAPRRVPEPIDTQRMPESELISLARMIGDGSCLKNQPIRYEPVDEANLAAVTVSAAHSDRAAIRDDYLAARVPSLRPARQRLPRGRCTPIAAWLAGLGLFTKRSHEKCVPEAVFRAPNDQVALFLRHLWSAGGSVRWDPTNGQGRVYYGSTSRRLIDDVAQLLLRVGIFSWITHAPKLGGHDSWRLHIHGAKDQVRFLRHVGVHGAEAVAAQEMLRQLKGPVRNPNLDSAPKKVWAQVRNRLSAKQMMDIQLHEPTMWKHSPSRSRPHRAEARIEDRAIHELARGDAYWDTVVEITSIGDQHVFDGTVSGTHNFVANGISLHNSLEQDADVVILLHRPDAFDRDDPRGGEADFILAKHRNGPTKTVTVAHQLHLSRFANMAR

[12] = Luminescence Cell-Based Dose Confirmation HTS to Identify Activators of 5'UTR Stem-Loop Driven Alpha-Synuclein mRNA Translation in H4 Neuroglioblastoma Cells. [Related pubchem assays: 1829 (Project Summary), 1814 (Primary HTS)]; assay type: functional
Protein RecA = molecular target: T3, Protein RecA (Mycobacterium tuberculosis, UniProt P9WHJ3); test: Fluorescence Cell-Free Homogeneous Dose Retest to Identify Inhibitors of RecA-Intein Splicing Activity. [Related pubchem assays (depositor defined):AID2097, AID2223, AID489010, AID492950]; assay type: functional
T3 sequence (P9WHJ3 whole entry): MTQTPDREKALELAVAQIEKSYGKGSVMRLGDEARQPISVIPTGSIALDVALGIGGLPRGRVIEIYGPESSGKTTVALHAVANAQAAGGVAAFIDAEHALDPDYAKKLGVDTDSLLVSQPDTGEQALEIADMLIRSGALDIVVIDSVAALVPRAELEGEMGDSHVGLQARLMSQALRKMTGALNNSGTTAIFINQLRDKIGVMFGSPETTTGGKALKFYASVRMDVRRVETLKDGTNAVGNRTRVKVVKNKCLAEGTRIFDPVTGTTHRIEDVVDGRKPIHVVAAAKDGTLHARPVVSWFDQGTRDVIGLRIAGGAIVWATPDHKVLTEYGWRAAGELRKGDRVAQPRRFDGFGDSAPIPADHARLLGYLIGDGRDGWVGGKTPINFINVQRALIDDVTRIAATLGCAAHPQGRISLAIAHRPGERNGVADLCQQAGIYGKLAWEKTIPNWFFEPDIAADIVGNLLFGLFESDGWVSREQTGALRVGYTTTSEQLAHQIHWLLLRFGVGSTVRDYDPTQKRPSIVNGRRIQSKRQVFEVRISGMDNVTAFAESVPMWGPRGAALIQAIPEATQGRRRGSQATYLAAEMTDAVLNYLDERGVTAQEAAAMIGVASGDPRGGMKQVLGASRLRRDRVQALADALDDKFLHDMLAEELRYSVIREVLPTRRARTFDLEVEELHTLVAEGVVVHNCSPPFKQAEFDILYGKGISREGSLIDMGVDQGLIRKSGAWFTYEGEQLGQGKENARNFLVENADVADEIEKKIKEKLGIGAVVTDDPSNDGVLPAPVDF

H4 = test: Luminescence Cell-Based Dose Response HTS to Identify Activators of 5'UTR Stem-Loop Driven Prion Protein mRNA Translation in H4 Neuroglioblastoma Cells. [Related pubchem assays: 1829 (Project Summary), 1814 (Primary HTS)]; assay type: functional; details: Homo sapiens
[13] = Luminescence Cell-Based Dose Response HTS to Identify Activators of Luciferase Translation or Activity in H4 […] Cells. [Related pubchem assays: 1829 (Project Summary), 1814 (Primary HTS)]; assay type: functional
HEK293 [14] = test: cells; details: Homo sapiens
[15] = HGIII-sPLA2 enzyme inhibition potency – biochemical, QFRET, IC50, dose response (AID 743457);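 further: green fluorescence rise as the enzyme cleaves BODIPY PC-A2 in liposomes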
HEK293 [16] = test: cells; details: Homo sapiens; remark: listed apart in the source
Streptokinase A = molecular target: T4, Streptokinase A (Streptococcus pyogenes serotype M1, UniProt P10520); test: viability-normalized secreted streptokinase activity reduction – plasminogen activation absorbance, OD405, dose response (AID 1914); assay type: functional, Streptococcus pyogenes M1 GAS;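 further: secreted streptokinase activity via plasminogen activation per viability signal from cell pellet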
T4 sequence (P10520 whole entry): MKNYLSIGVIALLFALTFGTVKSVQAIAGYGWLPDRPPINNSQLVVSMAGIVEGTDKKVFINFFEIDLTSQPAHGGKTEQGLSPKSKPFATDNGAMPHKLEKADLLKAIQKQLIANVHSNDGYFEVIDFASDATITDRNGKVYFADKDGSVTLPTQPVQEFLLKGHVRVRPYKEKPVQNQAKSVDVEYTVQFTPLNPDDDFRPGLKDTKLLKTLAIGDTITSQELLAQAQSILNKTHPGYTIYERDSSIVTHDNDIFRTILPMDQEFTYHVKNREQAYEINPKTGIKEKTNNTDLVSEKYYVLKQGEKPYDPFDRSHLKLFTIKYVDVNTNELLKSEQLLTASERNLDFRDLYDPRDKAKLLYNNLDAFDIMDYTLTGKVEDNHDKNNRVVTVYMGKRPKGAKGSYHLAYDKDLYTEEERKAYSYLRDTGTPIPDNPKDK

[17] = test system: Streptococcus sp. 'group A'; test: Streptococcus pyogenes SK(-)GAS viability under kanamycin – luminescence, BacTiterGlo, confirmation, counter-screen for streptokinase expression inhibitor project, dose response (AID 1900); assay type: functional, organism-based
INS1 = test: INS-1E survival protection against cytokine death – cell-based, luminescence, retest, dose response (AID 449756); assay type: functional; details: Rattus norvegicus;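 further: cell death triggered by IL-1 beta plus TNF-alpha plus IFN-gamma mixture; protective hits raise ATP signal compared with cytokine alone wells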
Streptococcus = test: GAS UMAA2166 growth inhibition – luminescence, BacTiterGlo, counter-screen for streptokinase expression inhibitor project, dose response (AID 1915); assay type: functional, organism-based;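 further: potency for reduction of bacterial viability or growth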
HEK293 [18] = test: EBV LMP1 TES2 canonical NF-kB signalling blockers – cell-based, HEK293, luciferase, cherry-pick, dose response (AID 588343); assay type: functional; details: Homo sapiens

SMILES: Cc1cc2oc(=O)cc(-c3ccccc3)c2c(C)c1-c1ccc(O)cc1
- EC50 [1]: > 53 µM (inactive)
- IC50 [2]: > 47.1 µM (inactive)
- IC50 [3]: > 69.5 µM (inactive)
- IC50 [4]: > 69.5 µM (inactive)

SMILES: CC(C)(C)[S@+]([O-])N1Cc2cc(C(=O)NCc3ccccc3F)nc(-c3cccc(-c4ccncc4)c3)c2[C@@H]1CCO
- AC50 [5]: 1.68 µM (active)
- AC50 [6]: 1.36 µM (active)
- AC50 [7]: 29.1 µM (active)
- AC50 [8]: 1.42 µM (active)
- AC50 [9]: 1.93 µM (active)

SMILES: O=C(NC1CCCC1)C1CC1c1ccccc1 (stereo not given)
- Ki (fMet-Leu-Phe receptor): > 66.7 µM (inactive)

SMILES: CCOC(=O)c1c(CSC(=N)N)n(-c2ccccc2)c2cc(Br)c(OC(C)=O)cc12
- IC50 [10]: 3.23 µM (active)
- AC50 [11]: 5.9 µM (active)
- EC50 [12]: > 120 µM (not active)
- EC50 (Protein RecA): 9.76 µM (active)
- EC50 (H4): > 120 µM (not active)
- EC50 [13]: 9.69 µM (active)
- EC50 (HEK293 [14]): > 59.6 µM (inactive)
- IC50 [15]: > 122 µM (inactive)
- EC50 (HEK293 [16]): > 59.6 µM (inactive)

SMILES: Oc1c2c(nc3c(-c4ccc(Cl)cc4)cnn13)CCCC2
- EC50 (Streptokinase A): > 150 µM (not active)
- EC50 [17]: 3.64 µM (active)
- AC50 (INS1): 2.37 µM (active)
- EC50 (Streptococcus): 9.5 µM (active)
- AC50 (HEK293 [18]): 2.89 µM (active)
- Ki (fMet-Leu-Phe receptor): > 66.7 µM (inactive)
